{"source": "patent US8673938B2", "about": "“Chemical compounds” (priority 2006, dated 2014)", "data": [{"target": "human 11βHSD1 enzyme (Homo sapiens (Human), UniProt P28845)", "sequence (P28845 whole entry)": "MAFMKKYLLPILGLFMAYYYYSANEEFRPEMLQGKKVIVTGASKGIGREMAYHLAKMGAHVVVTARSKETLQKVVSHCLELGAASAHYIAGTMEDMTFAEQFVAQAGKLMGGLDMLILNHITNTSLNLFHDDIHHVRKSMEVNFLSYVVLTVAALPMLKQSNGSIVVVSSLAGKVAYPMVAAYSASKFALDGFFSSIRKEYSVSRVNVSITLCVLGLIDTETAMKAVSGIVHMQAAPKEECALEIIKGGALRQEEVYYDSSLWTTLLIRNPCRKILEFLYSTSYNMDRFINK", "assay": "biochemical", "details": "read-out: % inhibition of human 11-βHSD", "units": {"inhibition at 30 µM": "%"}, "values": [{"smiles": "CCCSc1nc(N2CC[C@@H](C(=O)O)C2)ccc1C(=O)NC1C2CC3CC(C2)CC1C3", "note": "(stereo partly drawn) [Example 63, (3R)-1-[5-(2-adamantylcarbamoyl)-6-propylsulfanyl-pyridin-2-yl]pyrrolidine-3-carboxylic acid]", "inhibition at 30 µM": 91}, {"smiles": "CCCSc1nc(N2CC[C@H](CC(=O)O)C2)ccc1C(=O)NC1C2CC3CC(C2)CC1C3", "note": "(stereo partly drawn) [Example 64, 2-[(3R)-1-[5-(2-adamantylcarbamoyl)-6-propylsulfanyl-pyridin-2-yl]pyrrolidin-3-yl]acetic acid]", "inhibition at 30 µM": 89}, {"smiles": "CCCSc1nc(N2CCC[C@H]2C(=O)O)ccc1C(=O)NC1C2CC3CC(C2)CC1C3", "note": "(stereo partly drawn) [Example 65, (2S)-1-[5-(2-adamantylcarbamoyl)-6-propylsulfanyl-pyridin-2-yl]pyrrolidine-2-carboxylic acid]", "inhibition at 30 µM": 89}, {"smiles": "CCCSc1nc(N2C[C@@H]3[C@H](C2)[C@H]3C(=O)O)ccc1C(=O)NC1C2CC3CC(C2)CC1C3", "note": "(stereo partly drawn) [Example 66, (1S,5R)-3-[5-(2-adamantylcarbamoyl)-6-propylsulfanylpyridin-2-yl]-3-azabicyclo[3.1.0]hexane-6-carboxylic acid]", "inhibition at 30 µM": 89}, {"smiles": "CCCSc1nc(N2CC[C@H](C(=O)O)C2)ccc1C(=O)NC1C2CC3CC(C2)CC1C3", "note": "(stereo partly drawn) [Example 67, (3S)-1-[5-(2-adamantylcarbamoyl)-6-propylsulfanyl-pyridin-2-yl]pyrrolidine-3-carboxylic acid]", "inhibition at 30 µM": 88}, {"smiles": "O=C(O)CO[C@H]1CCN(c2ccc(C(=O)NC3C4CC5CC(C4)CC3C5)c(SC3CCCC3)n2)C1", "note": "(stereo partly drawn) [Example 69, 2-[(3S)-1-[5-(2-adamantylcarbamoyl)-6-cyclopentylsulfanyl-pyridin-2-yl]pyrrolidin-3-yl]oxyacetic acid]", "inhibition at 30 µM": 91}, {"smiles": "O=C(O)CO[C@@H]1CCN(c2ccc(C(=O)NC3C4CC5CC(C4)CC3C5)c(SC3CCCC3)n2)C1", "note": "(stereo partly drawn) [Example 70, 2-[(3R)-1-[5-(2-adamantylcarbamoyl)-6-cyclopentylsulfanyl-pyridin-2-yl]pyrrolidin-3-yl]oxyacetic acid]", "inhibition at 30 µM": 95}, {"smiles": "O=C(O)CO[C@H]1CCN(c2ccc(C(=O)NC3C4CC5CC(C4)CC3C5)c(SC3CCCCC3)n2)C1", "note": "(stereo partly drawn) [Example 71, 2-[(3S)-l-[5-(2-adamantylcarbamoyl)-6-cyclohexylsulfanyl-pyridin-2-yl]pyrrolidin-3-yl]oxyacetic acid]", "inhibition at 30 µM": 92}, {"smiles": "O=C(O)CO[C@@H]1CCN(c2ccc(C(=O)NC3C4CC5CC(C4)CC3C5)c(SC3CCCCC3)n2)C1", "note": "(stereo partly drawn) [Example 72, 2-[(3R)-1-[5-(2-adamantylcarbamoyl)-6-cyclohexylsulfanyl-pyridin-2-yl]pyrrolidin-3-yl]oxyacetic acid]", "inhibition at 30 µM": 84}, {"smiles": "CCSc1nc(N2CC[C@H](CC(=O)O)C2)ccc1C(=O)NC1C2CC3CC(C2)CC1C3", "note": "(stereo partly drawn) [Example 73, 2-[(3R)-1-[5-(2-adamantylcarbamoyl)-6-ethylsulfanyl-pyridin-2-yl]pyrrolidin-3-yl]acetic acid]", "inhibition at 30 µM": 92}, {"smiles": "CSc1nc(N2CC[C@H](CC(=O)O)C2)ccc1C(=O)NC1C2CC3CC(C2)CC1C3", "note": "(stereo partly drawn) [Example 76, 2-[(3R)-1-[5-(2-adamantylcarbamoyl)-6-methylsulfanyl-pyridin-2-yl]pyrrolidin-3-yl]acetic acid]", "inhibition at 30 µM": 87}, {"smiles": "CSc1nc(N2CC[C@@H](C(=O)O)C2)ccc1C(=O)NC1C2CC3CC(C2)CC1C3", "note": "(stereo partly drawn) [Example 77, (3R)-1-[5-(2-adamantylcarbamoyl)-6-methylsulfanyl-pyridin-2-yl]pyrrolidine-3-carboxylic acid]", "inhibition at 30 µM": 99}, {"smiles": "CCCSc1nc(N2CC[C@@H](CC(=O)O)C2)ccc1C(=O)NC1C2CC3CC1CC(O)(C3)C2", "note": "(stereo partly drawn) [Example 79, 2-[(3S)-1-[5-[((2r,5s)-5-hydroxy-2-adamantyl)carbamoyl]-6-propylsulfanyl-pyridin-2-yl]pyrrolidin-3-yl]acetic acid]", "inhibition at 30 µM": 90}, {"smiles": "CCCSc1nc(NCC2CCC(C(=O)O)CC2)ccc1C(=O)N[C@H]1C2CC3CC1C[C@](O)(C3)C2", "note": "(stereo partly shown) [Example 80, 4-[[[5-[((2r,5s)-5-hydroxy-2-adamantyl)carbamoyl]-6-propylsulfanyl-pyridin-2-yl]amino]methyl]cyclohexane-1-carboxylic acid]", "inhibition at 30 µM": 94}, {"smiles": "CCCSc1nc(N2CCC[C@@H](CC(=O)O)C2)ccc1C(=O)N[C@H]1C2CC3CC1C[C@@](O)(C3)C2", "note": "[Example 83]", "inhibition at 30 µM": 87}, {"smiles": "CCCSc1nc(N2CCC(C(=O)O)CC2)ccc1C(=O)N[C@H]1C2CC3CC1C[C@@](O)(C3)C2", "note": "[Example 84, 1-[5-[[(2r,5s)-5-hydroxy-2-adamantyl]carbamoyl]-6-propylsulfanyl-pyridin-2-yl]piperidine-4-carboxylic acid]", "inhibition at 30 µM": 101}, {"smiles": "CCCSc1nc(N2CCC[C@H](CC(=O)O)C2)ccc1C(=O)N[C@H]1C2CC3CC1C[C@@](O)(C3)C2", "note": "[Example 85, 2-[(3R)-1-[5-[[(2r,5s)-5-hydroxy-2-adamantyl]carbamoyl)-6-propylsulfanyl-pyridin-2-yl]-3-piperidyl]acetic acid]", "inhibition at 30 µM": 89}, {"smiles": "CCCSc1nc(N2CCC(CC(=O)O)CC2)ccc1C(=O)N[C@H]1C2CC3CC1C[C@@](O)(C3)C2", "note": "[Example 86, 2-[1-[5-[[(2r,5s)-5-hydroxy-2-adamantyl]carbamoyl]-6-propylsulfanyl-pyridin-2-yl]-4-piperidyl]acetic acid]", "inhibition at 30 µM": 90}, {"smiles": "CCCSc1nc(N2CCC(C)(C(=O)O)CC2)ccc1C(=O)N[C@H]1C2CC3CC1C[C@@](O)(C3)C2", "note": "[Example 88, 1-[5-[[(2r,5s)-5-hydroxy-2-adamantyl]carbamoyl]-6-propylsulfanyl-pyridin-2-yl]-4-methyl-piperidine-4-carboxylic acid]", "inhibition at 30 µM": 89}, {"smiles": "CCCSc1nc(N2CCC(C(=O)O)C2)ccc1C(=O)N[C@H]1C2CC3CC1C[C@@](O)(C3)C2", "note": "(stereo partly shown) [Example 89, 1-[5-[[(2r,5s)-5-hydroxy-2-adamantyl]carbamoyl]-6-propylsulfanyl-pyridin-2-yl]pyrrolidine-3-carboxylic acid]", "inhibition at 30 µM": 85}, {"smiles": "CCCSc1nc(N2CC[C@H](CC(=O)O)C2)ccc1C(=O)N[C@H]1C2CC3CC1C[C@@](O)(C3)C2", "note": "[Example 90, 2-[(3R)-1-[5-[[(2r,5s)-5-hydroxy-2-adamantyl]carbamoyl]-6-propylsulfanyl-pyridin-2-yl]pyrrolidin-3-yl]acetic acid]", "inhibition at 30 µM": 88}, {"smiles": "CCCSc1nc(N2CCCC(C(C)(C)C(=O)O)C2)ccc1C(=O)N[C@H]1C2CC3CC1C[C@](O)(C3)C2", "note": "(stereo partly shown) [Example 92, 2-[1-[5-[((2r,5s)-5-hydroxy-2-adamantyl)carbamoyl]-6-propylsulfanyl-pyridin-2-yl]-3-piperidyl]-2-methyl-propanoic acid]", "inhibition at 30 µM": 89}, {"smiles": "O=C(O)C[C@@H]1CCN(c2ccc(C(=O)NC3C4CC5CC3CC(O)(C5)C4)c(SC3CCCC3)n2)C1", "note": "(stereo partly drawn) [Example 93, 2-[(3S)-1-[6-cyclopentylsulfanyl-5-[((2r,5s)-5-hydroxy-2-adamantyl)carbamoyl]pyridin-2-yl]pyrrolidin-3-yl]acetic acid]", "inhibition at 30 µM": 85}, {"smiles": "O=C(O)C[C@@H]1CCCN(c2ccc(C(=O)N[C@H]3C4CC5CC3C[C@@](O)(C5)C4)c(SC3CCCC3)n2)C1", "note": "[Example 94]", "inhibition at 30 µM": 90}, {"smiles": "O=C(O)C[C@H]1CCN(c2ccc(C(=O)N[C@H]3C4CC5CC3C[C@@](O)(C5)C4)c(SC3CCCC3)n2)C1", "note": "[Example 95, 2-[(3R)-1-[6-cyclopentylsulfanyl-5-[((2r,5s)-5-hydroxy-2-adamantyl)carbamoyl]pyridin-2-yl]pyrrolidin-3-yl]acetic acid]", "inhibition at 30 µM": 88}, {"smiles": "O=C(N[C@H]1C2CC3CC1C[C@](O)(C3)C2)c1ccc(N2CC[C@@H](C(=O)O)C2)nc1SC1CCCC1", "note": "[Example 96, (3R)-1-[6-cyclopentylsulfanyl-5-[((2r,5s)-5-hydroxy-2-adamantyl)carbamoyl]pyridin-2-yl]pyrrolidine-3-carboxylic acid]", "inhibition at 30 µM": 88}, {"smiles": "O=C(N[C@H]1C2CC3CC1C[C@@](O)(C3)C2)c1ccc(N2CCC[C@H]2C(=O)O)nc1SC1CCCC1", "note": "[Example 97, (2S)-1-[6-cyclopentylsulfanyl-5-[((2r,5s)-5-hydroxy-2-adamantyl)carbamoyl]pyridin-2-yl]pyrrolidine-2-carboxylic acid]", "inhibition at 30 µM": 97}, {"smiles": "O=C(O)C[C@H]1CCN(c2ccc(C(=O)N[C@H]3C4CC5CC3C[C@](O)(C5)C4)c(SC3CCCCC3)n2)C1", "note": "[Example 100, 2-[(3R)-1-[6-cyclohexylsulfanyl-5-[((2r,5s)-5-hydroxy-2-adamantyl)carbamoyl]pyridin-2-yl]pyrrolidin-3-yl]acetic acid]", "inhibition at 30 µM": 92}, {"smiles": "O=C(N[C@H]1C2CC3CC1C[C@](O)(C3)C2)c1ccc(N2CCC[C@H]2C(=O)O)nc1SC1CCCCC1", "note": "[Example 101, (2S)-1-[6-cyclohexylsulfanyl-5-[((2r,5s)-5-hydroxy-2-adamantyl)carbamoyl]pyridin-2-yl]pyrrolidine-2-carboxylic acid]", "inhibition at 30 µM": 100}, {"smiles": "O=C(N[C@H]1C2CC3CC1C[C@](O)(C3)C2)c1ccc(N2CC[C@@H](C(=O)O)C2)nc1SC1CCCCC1", "note": "[Example 102, (3R)-1-[6-cyclohexylsulfanyl-5-[((2r,5s)-5-hydroxy-2-adamantyl)carbamoyl]pyridin-2-yl]pyrrolidine-3-carboxylic acid]", "inhibition at 30 µM": 89}, {"smiles": "O=C(O)C[C@@H]1CCCN(c2ccc(C(=O)N[C@H]3C4CC5CC3C[C@@](O)(C5)C4)c(SC3CCCCC3)n2)C1", "note": "[Example 103]", "inhibition at 30 µM": 90}, {"smiles": "CC(C)CCSc1nc(N2CCC[C@@H](CC(=O)O)C2)ccc1C(=O)NC1C2CC3CC1CC(O)(C3)C2", "note": "(stereo partly drawn) [Example 104, 2-[(3S)-l-[5-[[(2r,5s)-5-hydroxy-2-adamantyl]carbamoyl)-6-(3-methylbutylsulfanyl)pyridin-2-yl]-3-piperidyl]acetic acid]", "inhibition at 30 µM": 87}, {"smiles": "CC(C)CCSc1nc(N2CC[C@@H](C(=O)O)C2)ccc1C(=O)N[C@H]1C2CC3CC1C[C@@](O)(C3)C2", "note": "[Example 105]", "inhibition at 30 µM": 92}, {"smiles": "CC(C)CCSc1nc(N2C[C@@H]3[C@H](C2)[C@H]3C(=O)O)ccc1C(=O)N[C@H]1C2CC3CC1C[C@@](O)(C3)C2", "note": "[Example 106, (1R,5S)-3-[5-[((2r,5s)-5-hydroxy-2-adamantyl)carbamoyl]-6-(3-methylbutylsulfanyl)pyridin-2-yl]-3-azabicyclo[3.1.0]hexane-6-carboxylic acid]", "inhibition at 30 µM": 95}]}]}
